Calls of active or inactive are those of the source. No cut-off for these calls is given here.
Experiments:
Assay type in all cases: cell-based
[1] = target: Sodium-dependent serotonin transporter (Homo sapiens) (UniProt P31645); assay: Inhibition of SERT (unknown origin) expressed in HEK293 cells assessed as inhibition of MPP+ transport incubated for 5 mins by tandem mass spectrometry
[2] = target: Multidrug resistance-associated protein 1 (Homo sapiens, UniProt P33527); assay: Inhibition of ABCC1 in human NCI-H69AR cells assessed as increase in daunorubicin fluorescence intensity using daunorubicin as tracer preincubated for 30 mins followed by daunorubicin addition and measured for 180 mins by flow cytometry
Multidrug resistance-associated protein 1, sequence (P33527 whole entry): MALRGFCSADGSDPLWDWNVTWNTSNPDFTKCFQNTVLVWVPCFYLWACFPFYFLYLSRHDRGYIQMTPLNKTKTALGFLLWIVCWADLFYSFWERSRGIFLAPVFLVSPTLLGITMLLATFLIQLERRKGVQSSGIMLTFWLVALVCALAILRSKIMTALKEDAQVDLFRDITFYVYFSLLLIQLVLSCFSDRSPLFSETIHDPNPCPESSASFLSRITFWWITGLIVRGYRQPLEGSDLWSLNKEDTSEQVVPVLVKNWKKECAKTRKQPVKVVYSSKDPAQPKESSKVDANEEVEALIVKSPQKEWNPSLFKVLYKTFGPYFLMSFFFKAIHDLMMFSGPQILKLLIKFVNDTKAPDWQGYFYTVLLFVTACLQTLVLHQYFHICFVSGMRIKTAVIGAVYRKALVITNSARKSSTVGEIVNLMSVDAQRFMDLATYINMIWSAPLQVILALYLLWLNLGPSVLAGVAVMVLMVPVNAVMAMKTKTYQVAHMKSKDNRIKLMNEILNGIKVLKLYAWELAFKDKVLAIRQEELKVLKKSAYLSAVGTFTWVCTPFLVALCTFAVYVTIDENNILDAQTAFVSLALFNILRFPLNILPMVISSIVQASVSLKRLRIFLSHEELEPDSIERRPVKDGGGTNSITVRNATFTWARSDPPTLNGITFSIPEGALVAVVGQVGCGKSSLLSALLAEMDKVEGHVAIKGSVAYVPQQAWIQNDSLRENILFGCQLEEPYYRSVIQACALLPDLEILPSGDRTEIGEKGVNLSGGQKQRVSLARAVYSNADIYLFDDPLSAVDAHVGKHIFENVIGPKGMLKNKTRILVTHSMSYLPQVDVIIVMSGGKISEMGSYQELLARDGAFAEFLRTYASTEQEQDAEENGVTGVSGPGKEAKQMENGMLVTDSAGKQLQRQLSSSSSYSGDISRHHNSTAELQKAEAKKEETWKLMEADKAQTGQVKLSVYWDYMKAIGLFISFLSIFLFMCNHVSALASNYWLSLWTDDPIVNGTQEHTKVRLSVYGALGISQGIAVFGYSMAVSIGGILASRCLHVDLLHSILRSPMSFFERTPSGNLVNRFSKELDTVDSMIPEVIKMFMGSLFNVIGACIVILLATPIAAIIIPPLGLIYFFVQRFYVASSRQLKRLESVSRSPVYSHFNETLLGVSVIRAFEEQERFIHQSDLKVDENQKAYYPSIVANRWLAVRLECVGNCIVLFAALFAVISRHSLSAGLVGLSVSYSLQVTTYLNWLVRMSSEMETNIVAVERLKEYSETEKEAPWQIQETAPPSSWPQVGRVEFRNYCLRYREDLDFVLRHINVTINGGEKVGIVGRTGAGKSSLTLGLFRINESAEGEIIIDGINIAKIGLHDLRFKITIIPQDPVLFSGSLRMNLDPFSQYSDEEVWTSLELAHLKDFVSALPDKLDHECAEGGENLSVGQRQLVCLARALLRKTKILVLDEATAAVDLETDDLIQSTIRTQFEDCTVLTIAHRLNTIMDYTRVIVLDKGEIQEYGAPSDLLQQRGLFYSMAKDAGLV

[3] = target: T1, ATP-dependent translocase ABCB1 (Homo sapiens, UniProt P08183); assay: Inhibition of ABCB1 in human A2780 ADR cells assessed as increase in daunorubicin fluorescence intensity using daunorubicin as tracer preincubated for 30 mins followed by daunorubicin addition and measured for 180 mins by flow cytometry
T1 sequence (P08183 whole entry): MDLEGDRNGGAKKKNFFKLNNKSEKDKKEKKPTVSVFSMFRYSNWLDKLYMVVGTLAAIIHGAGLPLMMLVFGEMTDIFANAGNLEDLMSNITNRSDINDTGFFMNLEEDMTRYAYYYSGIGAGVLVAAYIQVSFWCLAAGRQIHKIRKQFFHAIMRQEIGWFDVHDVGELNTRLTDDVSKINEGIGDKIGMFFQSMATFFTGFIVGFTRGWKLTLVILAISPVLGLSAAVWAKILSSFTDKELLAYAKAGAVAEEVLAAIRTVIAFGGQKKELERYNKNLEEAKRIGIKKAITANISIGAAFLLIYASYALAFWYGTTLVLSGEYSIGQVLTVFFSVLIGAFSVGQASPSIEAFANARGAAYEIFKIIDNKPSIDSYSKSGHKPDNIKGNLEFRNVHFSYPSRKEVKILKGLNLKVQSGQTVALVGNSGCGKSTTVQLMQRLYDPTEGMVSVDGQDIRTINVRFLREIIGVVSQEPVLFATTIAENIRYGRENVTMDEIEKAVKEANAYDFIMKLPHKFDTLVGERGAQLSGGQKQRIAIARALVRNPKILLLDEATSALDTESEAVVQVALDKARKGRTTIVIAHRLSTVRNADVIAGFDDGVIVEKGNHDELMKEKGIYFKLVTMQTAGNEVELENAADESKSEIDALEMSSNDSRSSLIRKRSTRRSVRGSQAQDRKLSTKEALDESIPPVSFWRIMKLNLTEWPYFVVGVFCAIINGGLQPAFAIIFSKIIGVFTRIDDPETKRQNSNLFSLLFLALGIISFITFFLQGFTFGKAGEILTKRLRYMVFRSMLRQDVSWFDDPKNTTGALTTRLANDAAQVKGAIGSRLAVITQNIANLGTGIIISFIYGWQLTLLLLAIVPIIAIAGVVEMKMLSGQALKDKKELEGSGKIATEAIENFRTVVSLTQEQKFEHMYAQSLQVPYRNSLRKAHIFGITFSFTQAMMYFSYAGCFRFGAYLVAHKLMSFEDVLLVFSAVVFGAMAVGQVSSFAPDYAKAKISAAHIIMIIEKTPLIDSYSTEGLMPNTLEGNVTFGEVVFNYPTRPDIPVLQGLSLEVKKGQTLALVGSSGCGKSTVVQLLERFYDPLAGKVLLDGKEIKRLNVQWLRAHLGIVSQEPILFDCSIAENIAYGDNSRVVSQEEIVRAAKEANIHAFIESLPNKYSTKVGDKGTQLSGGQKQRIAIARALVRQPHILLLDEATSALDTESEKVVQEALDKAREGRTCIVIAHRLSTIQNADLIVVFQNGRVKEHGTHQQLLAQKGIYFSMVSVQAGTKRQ

[4] = target: T1, ATP-dependent translocase ABCB1; assay: Inhibition of ABCB1 in human A2780 ADR cells assessed as increase in calcein-AM fluorescence intensity using calcein-AM as tracer preincubated for 30 mins followed by calcein-AM addition and measured within 30 mins at 30s intervals by fluorescence based analysis
[5] = target: T2, Solute carrier organic anion transporter family member 1B1 (Homo sapiens, UniProt Q9Y6L6); assay: Inhibition of OATP1B1 (unknown origin) transfected in human A-431 cells assessed as inhibition of DHPDS uptake preincubated for 5 mins followed by DHPDS addition and measured after 10 mins by fluorescence based analysis
T2 sequence (Q9Y6L6 whole entry): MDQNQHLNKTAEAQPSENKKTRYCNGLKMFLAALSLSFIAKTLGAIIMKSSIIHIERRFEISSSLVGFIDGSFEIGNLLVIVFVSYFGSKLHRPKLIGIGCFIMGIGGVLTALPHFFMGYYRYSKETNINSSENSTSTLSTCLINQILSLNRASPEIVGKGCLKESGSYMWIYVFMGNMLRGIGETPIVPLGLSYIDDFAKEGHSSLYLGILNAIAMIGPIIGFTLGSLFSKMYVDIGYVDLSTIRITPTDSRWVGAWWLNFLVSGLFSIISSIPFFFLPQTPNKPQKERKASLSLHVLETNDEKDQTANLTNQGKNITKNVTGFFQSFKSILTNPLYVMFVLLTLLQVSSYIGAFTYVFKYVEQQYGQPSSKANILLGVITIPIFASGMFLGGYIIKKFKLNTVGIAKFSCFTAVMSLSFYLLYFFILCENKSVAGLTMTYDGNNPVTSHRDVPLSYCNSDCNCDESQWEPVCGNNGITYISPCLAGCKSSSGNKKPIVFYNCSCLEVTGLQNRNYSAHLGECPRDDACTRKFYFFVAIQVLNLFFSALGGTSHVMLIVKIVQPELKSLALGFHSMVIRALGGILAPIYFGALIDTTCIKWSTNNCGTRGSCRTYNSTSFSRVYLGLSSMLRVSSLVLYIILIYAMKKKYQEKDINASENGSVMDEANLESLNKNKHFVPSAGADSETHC

[6] = target: T3, ATP-binding cassette sub-family C member 10 (Homo sapiens, UniProt Q5T3U5); assay: Reversal of ABCC10 (unknown origin) -mediated multidrug resistance transfected in human HEK293 MRP7 cells assessed as increase in paclitaxel-mediated cytotoxicity incubated for 68 hrs in presence of paclitaxel by MTT assay
T3 sequence (Q5T3U5 whole entry): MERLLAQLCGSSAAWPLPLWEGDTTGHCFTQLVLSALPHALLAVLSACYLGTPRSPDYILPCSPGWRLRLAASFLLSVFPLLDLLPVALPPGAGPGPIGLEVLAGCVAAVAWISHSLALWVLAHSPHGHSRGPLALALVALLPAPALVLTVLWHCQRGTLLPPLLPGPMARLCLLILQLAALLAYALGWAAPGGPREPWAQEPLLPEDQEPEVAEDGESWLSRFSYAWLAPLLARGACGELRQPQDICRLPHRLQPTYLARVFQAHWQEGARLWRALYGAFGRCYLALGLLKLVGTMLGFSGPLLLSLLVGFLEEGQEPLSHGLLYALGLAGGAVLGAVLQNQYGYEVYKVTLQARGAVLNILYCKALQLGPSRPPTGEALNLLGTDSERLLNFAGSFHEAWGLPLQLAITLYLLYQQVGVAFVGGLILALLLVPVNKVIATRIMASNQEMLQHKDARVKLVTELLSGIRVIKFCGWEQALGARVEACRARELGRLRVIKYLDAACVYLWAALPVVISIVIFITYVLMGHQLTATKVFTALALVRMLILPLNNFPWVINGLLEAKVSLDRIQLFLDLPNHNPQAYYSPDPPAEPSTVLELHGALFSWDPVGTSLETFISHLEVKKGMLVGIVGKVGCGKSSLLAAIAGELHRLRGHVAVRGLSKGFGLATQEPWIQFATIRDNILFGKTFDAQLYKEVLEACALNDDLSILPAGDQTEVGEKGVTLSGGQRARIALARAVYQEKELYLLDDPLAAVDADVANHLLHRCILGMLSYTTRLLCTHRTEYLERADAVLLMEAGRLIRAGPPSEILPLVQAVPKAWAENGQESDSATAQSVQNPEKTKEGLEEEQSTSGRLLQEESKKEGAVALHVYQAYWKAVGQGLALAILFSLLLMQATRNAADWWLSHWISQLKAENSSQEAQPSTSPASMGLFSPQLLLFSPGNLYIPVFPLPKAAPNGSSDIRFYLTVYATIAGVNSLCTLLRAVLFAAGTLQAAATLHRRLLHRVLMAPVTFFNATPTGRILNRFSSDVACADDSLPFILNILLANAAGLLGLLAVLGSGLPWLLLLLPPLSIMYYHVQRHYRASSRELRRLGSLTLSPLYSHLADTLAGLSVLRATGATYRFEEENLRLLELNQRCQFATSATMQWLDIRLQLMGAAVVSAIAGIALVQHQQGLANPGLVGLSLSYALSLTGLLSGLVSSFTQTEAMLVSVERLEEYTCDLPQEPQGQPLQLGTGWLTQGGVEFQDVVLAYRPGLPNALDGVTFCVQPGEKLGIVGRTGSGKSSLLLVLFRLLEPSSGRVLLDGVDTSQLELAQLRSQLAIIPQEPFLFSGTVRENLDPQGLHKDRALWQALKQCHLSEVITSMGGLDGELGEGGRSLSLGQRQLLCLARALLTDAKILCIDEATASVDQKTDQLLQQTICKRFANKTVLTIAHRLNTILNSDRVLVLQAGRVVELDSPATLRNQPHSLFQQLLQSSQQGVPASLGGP

Sodium-dependent serotonin transporter (Homo sapiens), sequence (P31645 whole entry, looked up): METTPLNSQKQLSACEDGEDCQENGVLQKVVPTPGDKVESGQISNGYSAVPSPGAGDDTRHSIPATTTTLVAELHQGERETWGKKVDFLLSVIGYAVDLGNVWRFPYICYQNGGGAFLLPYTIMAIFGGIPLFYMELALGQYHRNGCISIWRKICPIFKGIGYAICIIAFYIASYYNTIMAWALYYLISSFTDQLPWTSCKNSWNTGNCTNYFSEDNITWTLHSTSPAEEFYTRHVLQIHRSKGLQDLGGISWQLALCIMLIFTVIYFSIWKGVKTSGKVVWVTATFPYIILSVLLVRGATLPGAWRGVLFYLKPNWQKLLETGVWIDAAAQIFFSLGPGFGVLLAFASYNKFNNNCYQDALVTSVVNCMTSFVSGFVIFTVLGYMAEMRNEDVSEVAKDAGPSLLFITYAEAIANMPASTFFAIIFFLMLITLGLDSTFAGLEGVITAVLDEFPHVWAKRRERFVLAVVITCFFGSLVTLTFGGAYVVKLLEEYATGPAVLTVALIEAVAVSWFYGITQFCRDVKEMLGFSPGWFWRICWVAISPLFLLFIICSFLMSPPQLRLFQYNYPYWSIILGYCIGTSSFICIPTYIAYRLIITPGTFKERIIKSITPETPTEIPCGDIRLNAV

inhibition [1]	IC50 [2]	IC50 [3]	IC50 [4]	IC50 [5]	SMILES	EC50 [6]
inactive	5.15 µM	8 µM	6.12 µM	17.9 µM	O=C(Cn1nc(C(=O)Nc2cccnc2)c2ccccc21)Nc1ccc(Cl)cc1	–
inactive	0.492 µM	1.74 µM	0.626 µM	16.8 µM	O=C(Cn1nc(C(=O)Nc2ccccn2)c2ccccc21)Nc1cc(Cl)ccc1Cl	Not_active
inactive	1.48 µM	1.43 µM	1.1 µM	4.96 µM	COc1cccc(NC(=O)Cn2nc(C(=O)Nc3cccc(OC)c3)c3ccccc32)c1	Not_active
inactive	2.19 µM	2.18 µM	1.56 µM	5.66 µM	COc1cccc(NC(=O)c2nn(CC(=O)Nc3ccccc3OC)c3ccccc23)c1	Not_active

— ChEMBL document CHEMBL6109064, “Functional and structural polypharmacology of indazole-based privileged ligands to tackle the undruggability of membrane transporters” (Eur J Med Chem, 2025)
